Data reported in patent US20250009697A1, “COMPOSITION FOR INCREASING AMOUNT OF FOOD INGESTED AND/OR IMPROVING ANOREXIA, AND COMPOSITION FOR ACTIVATING TRANSIENT RECEPTOR POTENTIAL ANKYRIN 1” (HOUSE FOODS GROUP INC., priority 2021, published 2025).

Key:
Mock cell = test: TRPA1 Activation Test 2: intracellular Ca2+ imaging assay 2-2, Mock cell; format: cell-based; details: Table 9
Experimental: (§1) A hTRPA1 stably expressing cell line in which expression of hTRPA1 had been induced in advance by a conventional method was prepared in a 96 well clear bottom plate, and the hTRPA1 activating action of rhein (produced by Tokyo Chemical Industry Co., Ltd.) was tested. Specifically, after each well was washed with PBS, 50 μL of an assay buffer (Hanks' balanced salt solution containing no calcium ion or magnesium ion that contained 1 mM of CaCl2 dihydrate, 20 mM of HEPES, and 0.1% BSA) containing calcium fluorescent indicator Calbryte™ 520 AM (produced by AAT Bioquest) in a final concentration of 4 μM was added, followed by incubating at 33° C. for 45 minutes. After washing with the assay buffer, 100 μL of the assay buffer was added to each well. This plate was set to FlexStation 3 (Molecular Devices, LLC), and a fluorescence intensity (excitation wavelength 490 nm, fluorescence wavelength 525 nm) at 31° C. was measured every two seconds, and 30 seconds after the start of the measurement, 100 μL of an assay buffer containing a test sample (allyl isothiocyanate (AITC) of positive control or rhein) which was prepared to have a certain final concentration or DMSO was added. Then, a well in which an assay buffer containing ionomycin (having a final concentration of 10 μM after the addition) instead of the test samples was added was also prepared as a reference for fluorescence intensity.
(§2) The measurement was continued from the start of the measurement up to 120 seconds, and the TRPA1 activation ability of the test samples was calculated in accordance with the following formula.
Activation rate (%)=(Fmax[s]−F0)/(Fmax[i]−F0)×100 • Fmax[s]: The maximum value of the fluorescence intensity when the test sample or positive control was added • F0: The average value of the fluorescence intensity for 20 seconds after the start of the measurement (base line) • Fmax[i]: The maximum value of the fluorescence intensity when ionomycin was added […]

Human TRPV1 (hTRPV1) = target: T1, Human TRPV1 (hTRPV1) (Homo sapiens, UniProt Q8NER1); test: TRPA1 Activation Test 2: intracellular Ca2+ imaging assay 2-2, hTRPV1 stably expressing cell line; format: cell-based; details: for TRPV1 activation rate: Table 9
T1 construct: expressed in transfected cells
T1 sequence (Q8NER1 whole entry): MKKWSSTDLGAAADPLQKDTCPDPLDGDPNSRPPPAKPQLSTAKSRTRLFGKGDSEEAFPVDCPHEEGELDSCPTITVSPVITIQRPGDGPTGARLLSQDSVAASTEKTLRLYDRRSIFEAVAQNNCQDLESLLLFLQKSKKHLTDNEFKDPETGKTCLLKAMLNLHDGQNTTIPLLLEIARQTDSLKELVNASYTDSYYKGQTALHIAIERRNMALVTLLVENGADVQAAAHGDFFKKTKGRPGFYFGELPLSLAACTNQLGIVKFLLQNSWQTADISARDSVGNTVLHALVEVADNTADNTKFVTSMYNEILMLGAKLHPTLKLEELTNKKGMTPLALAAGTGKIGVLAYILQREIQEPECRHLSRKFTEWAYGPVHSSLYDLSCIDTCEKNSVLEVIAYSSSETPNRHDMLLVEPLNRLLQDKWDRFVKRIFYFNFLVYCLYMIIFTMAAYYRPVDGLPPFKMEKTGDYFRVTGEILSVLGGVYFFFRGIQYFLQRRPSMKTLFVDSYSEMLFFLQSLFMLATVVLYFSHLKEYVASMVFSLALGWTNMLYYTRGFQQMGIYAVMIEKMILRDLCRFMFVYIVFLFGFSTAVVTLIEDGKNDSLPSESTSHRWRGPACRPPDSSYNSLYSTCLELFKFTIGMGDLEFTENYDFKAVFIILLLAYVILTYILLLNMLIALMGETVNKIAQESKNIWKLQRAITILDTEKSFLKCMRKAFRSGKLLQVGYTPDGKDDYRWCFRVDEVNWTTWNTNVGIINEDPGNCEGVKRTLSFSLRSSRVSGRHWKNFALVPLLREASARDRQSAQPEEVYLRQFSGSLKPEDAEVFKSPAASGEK
Experimental: DNAs encoding genes described in the following Table 2 were inserted into pcDNA 5/TO vector (Invitrogen) to prepare various expression vectors.
These expression vectors were transfected into T-REx™_293 cells (Invitrogen) by a conventional method using Lipofectamine LTX (Invitrogen). Then, various transfectants were cultured and cloned by a conventional method using Dulbecco's Modified Eagle Medium (DMEM, Nacalai Tesque Inc.), containing 10% fetal bovine serum (FBS, Cytiva), […] of hygromycin B, and 5 μg/mL of blasticidin S, as a drug selection medium to obtain a hTRPA1 stably expressing cell line, a hTRPV1 stably expressing cell line, and a hTRPM8 stably expressing cell line.
as §1, with “This plate was set to FlexStation 3 (Molecular Devices, LLC), and a fluorescence intensity (excitation wavelength 490 nm, fluorescence wavelength 525 nm) at 31° C. was measured every two seconds, and 30 seconds after the start of the measurement, 100 μL of an assay buffer containing a test sample (allyl isothiocyanate (AITC) of positive control or rhein) which was prepared to have a certain final concentration or DMSO was added.” left out
as §2
Activation rate (%)=(Fmax[s]−F0)/(Fmax[i]−F0)×100 • Fmax[s]: The maximum value of the fluorescence intensity when the test sample or positive control was added • F0: The average value of the fluorescence intensity for 20 seconds after the start of the measurement (base line) • Fmax[i]: The maximum value of the fluorescence intensity when ionomycin was added
The TRPA1 activation ability of each test sample was measured in the same manner as in the above (2) except the test was conducted with A-967079 (1 μM), which is a TRPA1-specific antagonist, or without A-967079. In addition, intracellular Ca^2+ imaging assay was conducted in the same manner as in the above (2) except that a hTRPV1 stably expressing cell line, a hTRPM8 stably expressing cell line, or a Mock cell was used instead of the hTRPA1 stably expressing cell line. […]

[1] = Anorexia Improving Test 2: cumulative amounts of food ingested of mice, rhein; format: in vivo
Experimental: Male ICR mice were housed in individual cages in which ALPHA-dri (Shepherd Specialty Papers) was laid, and were acclimatized and raised for at least one week or more while a powder feed (CE-2, CLEA Japan, Inc.) was given to the mice by using a powder feeder for mice (SN-950, Shinano Manufacturing Co., Ltd.). Then, for several days before the experiment, handling and oral administration training using a feeding needle (FG4202, Fuchigami Kikai Co., Ltd.) were conducted every day.
To 9 week-old mice under ad libitum feeding conditions, a carrier solution (containing 2% of dimethyl sulfoxide and 98% of a 0.5% methyl cellulose solution in volume ratio) or a rhein solution (obtained by dissolving 8.53 mg of rhein in 1 mL of the carrier solution) was orally administered from 9:20 a.m. (10 mL/kg body weight). […] Then, a feeder the mass of which had been measured in advance was set in the cage at 9:30 a.m. The masses of the feeder and the feed spilled in the cage 0.5, 1, 2, and 3 hours after the start of the feeding experiment were measured, and the ingested mass (g) at each time was measured (n=6).

## O=C(O)c1cc(O)c2c(c1)C(=O)c1cccc(O)c1C2=O [Rhein, rhein]
Mock cell; test sample 100 μM
  Activation rate, Mock: 3.49 ± 0.0595%
Mock cell; test sample 200 μM
  Activation rate, Mock: 9.65 ± 0.143%
Human TRPV1 (hTRPV1); hTRPV1 stably expressing cell line
  TRPV1 activation (in words): not activated
Human TRPV1 (hTRPV1); test sample 100 μM
  TRPV1 activation rate: 2.40 ± 0.0395%
Human TRPV1 (hTRPV1); test sample 200 μM
  TRPV1 activation rate: 5.49 ± 0.0830%
[1]; 100 μmol/kg body weight, FIG. 4
  Cumulative amounts of food ingested of mice (in words): significantly increased
[1]; oral, 300 μmol/kg body weight, 0.5 to 3 hours, FIG. 3
  Cumulative amounts of food ingested of mice (in words): increased
